Test results published in ChEMBL document CHEMBL3244320, “2-Acetylpyridine thiosemicarbazones. 1. A new class of potential antimalarial agents” (J Med Chem, 1979).

Each compound was assayed on Plasmodium berghei (assay: Antimalarial activity against Plasmodium berghei KBG 173 infected in ICR/HA Swiss mouse assessed as increase in mean survival time at 40 mg/kg, sc administered 72 hrs post infection). Conditions: route subcutaneous.
Assay type: functional

| SMILES | MST [days] |
| --- | --- |
| C/C(=N\NC(=S)NCc1cccnc1)c1ccccn1 | 0.1 |
| CCOC(=O)c1ccc(NC(=S)N/N=C(\C)c2ccccn2)cc1 | 0.3 |
| CCOC(=O)CNC(=S)N/N=C(\CC)c1ccccn1 | 0.3 |
| C/C(=N\NC(=S)Nc1c(Cl)cccc1Cl)c1ccccn1 | 0.1 |
| C/C(=N\NC(=S)NCc1ccccc1Cl)c1ccccn1 | 0.3 |
| C/C(=N\NC(=S)NCc1ccc(C)cc1)c1ccccn1 | 0.1 |
| C/C(=N\NC(=S)Nc1ccncc1)c1ccccn1 | 0.1 |
| C/C(=N\NC(=S)NCc1ccc(Cl)cc1Cl)c1ccccn1 | 0.4 |
| CC/C(=N\NC(=S)Nc1ccccc1)c1ccccn1 | 0 |
| C/C(=N\NC(=S)Nc1ccc(Br)cc1)c1ccccn1 | 0.3 |
| C/C(=N\NC(=S)Nc1ccc(Cl)cc1Cl)c1ccccn1 | -0.1 |
| C/C(=N\NC(=S)Nc1cc(Cl)cc(Cl)c1)c1ccccn1 | -0.2 |
| CC/C(=N\NC(=S)Nc1cccc(Cl)c1)c1ccccn1 | 0.3 |
| CC/C(=N\NC(=S)Nc1ccc([N+](=O)[O-])cc1)c1ccccn1 | 0.1 |
| C/C(=N\NC(=S)Nc1ccc(S(=O)(=O)c2ccc(NC(=S)N/N=C(\C)c3ccccn3)cc2)cc1)c1ccccn1 | 0.1 |
| CCOC(=O)CNC(=S)N/N=C(\C)c1ccccn1 | 0.1 |
| CC/C(=N\NC(=S)Nc1ccc(Br)cc1)c1ccccn1 | 0.3 |
| C/C(=N\NC(=S)Nc1cccc(Cl)c1Cl)c1ccccn1 | -0.2 |
| C/C(=N\NC(=S)NC(C)c1ccc(F)cc1)c1ccccn1 (stereo unspecified) | 1.1 |
| CCCCc1ccc(NC(=S)N/N=C(\C)c2ccccn2)cc1 | 0.3 |
| C/C(=N\N=C(/S)NCc1ccccc1)c1ccccn1 | 0.5 |
| CC/C(=N\NC(=S)NC(c1ccccc1)(c1ccccc1)c1ccccc1)c1ccccn1 | 0.1 |
| C/C(=N\NC(=S)NCc1cccc(C)c1)c1ccccn1 | 0.3 |
| C/C(=N\NC(=S)Nc1ccccc1Br)c1ccccn1 | 0.1 |

| SMILES | MST [days] |
| --- | --- |
| C/C(=N\NC(=S)NCc1ccncc1)c1ccccn1 | 0.3 |
| C/C(=N\NC(=S)Nc1cc(Cl)ccc1Cl)c1ccccn1 | -0.1 |
| C/C(=N\NC(=S)Nc1cc(Cl)c(Cl)cc1Cl)c1ccccn1 | -0.3 |
| C/C(=N\NC(=S)Nc1c2ccccc2nc2ccccc12)c1ccccn1 | 0.3 |
| COc1cc(NC(=S)N/N=C(\C)c2ccccn2)c2nccc(C)c2c1 | 0.1 |
| COc1ccc(NC(=S)N/N=C(\C)c2ccccn2)nn1 | 0.1 |
| COc1ccc(NC(=S)N/N=C(\C)c2ccccn2)cc1 | 2.1 |
| C/C(=N\NC(=S)Nc1ccc(Cl)c(Cl)c1)c1ccccn1 | 0.5 |
| C/C(=N\NC(=S)NCc1ccc(C)c(C)c1)c1ccccn1 | 0.3 |
| CC/C(=N\NC(=S)Nc1ccccc1Cl)c1ccccn1 | 0.1 |
| C/C(=N\NC(=S)Nc1cccc(Br)c1)c1ccccn1 | 0.1 |
| C/C(=N\NC(=S)NCc1ccc(Cl)c(Cl)c1)c1ccccn1 | 0.1 |
| C/C(=N\NC(=S)Nc1ccccc1)c1ccccn1 | 3.1 |
| C/C(=N\NC(=S)NCc1ccccn1)c1ccccn1 | 0.1 |
| C/C(=N\NC(=S)Nc1cccc([N+](=O)[O-])c1)c1ccccn1 | 0.1 |
| CCOC(=O)c1ccc(NC(=S)N/N=C(\CC)c2ccccn2)cc1 | 0.3 |
| C/C(=N\NC(=S)Nc1ccc(F)cc1)c1ccccn1 | 1.3 |
| C/C(=N\NC(=S)Nc1ccc(Cl)c(Cl)c1Cl)c1ccccn1 | 0.1 |
| C/C(=N\NC(=S)NC(c1ccccc1)(c1ccccc1)c1ccccc1)c1ccccn1 | 0.1 |
| C/C(=N\NC(=S)Nc1cccnc1)c1ccccn1 | 0.3 |
| C/C(=N\NC(=S)Nc1ccc([N+](=O)[O-])cc1)c1ccccn1 | 0.1 |
| C/C(=N\NC(=S)Nc1ccc(O)cc1)c1ccccn1 | 0.1 |
| CC/C(=N\NC(=S)Nc1ccc(Cl)cc1)c1ccccn1 | 0.3 |
| C/C(=N\NC(=S)N1CC1)c1ccccn1 | 0.1 |

Each compound was assayed on Plasmodium berghei (assay: Antimalarial activity against Plasmodium berghei KBG 173 infected in ICR/HA Swiss mouse assessed as increase in mean survival time at 80 mg/kg, sc administered 72 hrs post infection). Conditions: route subcutaneous.
Assay type: functional

| SMILES | MST [days] |
| --- | --- |
| C/C(=N\NC(=S)NCc1ccc(C)cc1)c1ccccn1 | 1.7 |
| CC/C(=N\NC(=S)Nc1ccccc1)c1ccccn1 | 1.2 |
| C/C(=N\NC(=S)NC(C)c1ccc(F)cc1)c1ccccn1 (stereo unspecified) | 5.5 |
| C/C(=N\NC(=S)NCc1cccc(Cl)c1)c1ccccn1 | 0 |
| C/C(=N\NC(=S)Nc1ccccc1)c1ccccn1 | 4.7 |
| C/C(=N\NC(=S)Nc1ccc(F)cc1)c1ccccn1 | 3.7 |

Each compound was assayed on Plasmodium berghei (assay: Antimalarial activity against Plasmodium berghei KBG 173 infected in ICR/HA Swiss mouse assessed as increase in mean survival time at 160 mg/kg, sc administered 72 hrs post infection). Conditions: route subcutaneous.
Assay type: functional

| SMILES | MST [days] |
| --- | --- |
| C/C(=N\NC(=S)NCc1cccnc1)c1ccccn1 | 0.3 |
| CCOC(=O)c1ccc(NC(=S)N/N=C(\C)c2ccccn2)cc1 | 0.3 |
| CCOC(=O)CNC(=S)N/N=C(\CC)c1ccccn1 | 0.3 |
| C/C(=N\NC(=S)Nc1c(Cl)cccc1Cl)c1ccccn1 | 0.9 |
| C/C(=N\NC(=S)NCc1ccccc1Cl)c1ccccn1 | 0.3 |
| C/C(=N\NC(=S)NCc1ccc(C)cc1)c1ccccn1 | 4.3 |
| C/C(=N\NC(=S)Nc1ccncc1)c1ccccn1 | 0.3 |
| C/C(=N\NC(=S)NCc1ccc(Cl)cc1Cl)c1ccccn1 | 1 |
| CC/C(=N\NC(=S)Nc1ccccc1)c1ccccn1 | 2.6 |
| C/C(=N\NC(=S)Nc1ccc(Br)cc1)c1ccccn1 | 0.3 |
| C/C(=N\NC(=S)Nc1ccc(Cl)cc1Cl)c1ccccn1 | 0.3 |
| C/C(=N\NC(=S)Nc1cc(Cl)cc(Cl)c1)c1ccccn1 | -0.2 |
| CC/C(=N\NC(=S)Nc1cccc(Cl)c1)c1ccccn1 | 0.3 |
| CC/C(=N\NC(=S)Nc1ccc([N+](=O)[O-])cc1)c1ccccn1 | 0.1 |
| C/C(=N\NC(=S)Nc1ccc(S(=O)(=O)c2ccc(NC(=S)N/N=C(\C)c3ccccn3)cc2)cc1)c1ccccn1 | 0.1 |
| CCOC(=O)CNC(=S)N/N=C(\C)c1ccccn1 | 0.1 |
| CC/C(=N\NC(=S)Nc1ccc(Br)cc1)c1ccccn1 | 0.3 |
| C/C(=N\NC(=S)Nc1cccc(Cl)c1Cl)c1ccccn1 | 0.2 |
| C/C(=N\NC(=S)NC(C)c1ccc(F)cc1)c1ccccn1 (stereo unspecified) | 8.5 |
| CCCCc1ccc(NC(=S)N/N=C(\C)c2ccccn2)cc1 | 3.9 |
| C/C(=N\N=C(/S)NCc1ccccc1)c1ccccn1 | 3.7 |
| CC/C(=N\NC(=S)NC(c1ccccc1)(c1ccccc1)c1ccccc1)c1ccccn1 | 0.1 |
| C/C(=N\NC(=S)NCc1cccc(C)c1)c1ccccn1 | 0.7 |
| C/C(=N\NC(=S)Nc1ccccc1Br)c1ccccn1 | 0.5 |
| C/C(=N\NC(=S)NCc1ccncc1)c1ccccn1 | 0.4 |

| SMILES | MST [days] |
| --- | --- |
| C/C(=N\NC(=S)Nc1cc(Cl)ccc1Cl)c1ccccn1 | 0.1 |
| C/C(=N\NC(=S)Nc1cc(Cl)c(Cl)cc1Cl)c1ccccn1 | 0.1 |
| C/C(=N\NC(=S)Nc1c2ccccc2nc2ccccc12)c1ccccn1 | 0.3 |
| C/C(=N\NC(=S)NCc1cccc(Cl)c1)c1ccccn1 | 1.6 |
| COc1cc(NC(=S)N/N=C(\C)c2ccccn2)c2nccc(C)c2c1 | 0.1 |
| COc1ccc(NC(=S)N/N=C(\C)c2ccccn2)nn1 | 0.1 |
| COc1ccc(NC(=S)N/N=C(\C)c2ccccn2)cc1 | 9.7 |
| C/C(=N\NC(=S)Nc1ccc(Cl)c(Cl)c1)c1ccccn1 | 0.5 |
| C/C(=N\NC(=S)NCc1ccc(C)c(C)c1)c1ccccn1 | 0.1 |
| CC/C(=N\NC(=S)Nc1ccccc1Cl)c1ccccn1 | 0.1 |
| C/C(=N\NC(=S)Nc1cccc(Br)c1)c1ccccn1 | 0.3 |
| C/C(=N\NC(=S)NCc1ccc(Cl)c(Cl)c1)c1ccccn1 | 0.5 |
| C/C(=N\NC(=S)Nc1ccccc1)c1ccccn1 | 11.1 |
| C/C(=N\NC(=S)NCc1ccccn1)c1ccccn1 | 0.3 |
| C/C(=N\NC(=S)Nc1cccc([N+](=O)[O-])c1)c1ccccn1 | -0.3 |
| CCOC(=O)c1ccc(NC(=S)N/N=C(\CC)c2ccccn2)cc1 | 0.5 |
| C/C(=N\NC(=S)Nc1ccc(F)cc1)c1ccccn1 | 3.9 |
| C/C(=N\NC(=S)Nc1ccc(Cl)c(Cl)c1Cl)c1ccccn1 | 0.1 |
| C/C(=N\NC(=S)NC(c1ccccc1)(c1ccccc1)c1ccccc1)c1ccccn1 | 0.1 |
| C/C(=N\NC(=S)Nc1cccnc1)c1ccccn1 | 0.5 |
| C/C(=N\NC(=S)Nc1ccc([N+](=O)[O-])cc1)c1ccccn1 | 0.1 |
| C/C(=N\NC(=S)Nc1ccc(O)cc1)c1ccccn1 | 0.3 |
| CC/C(=N\NC(=S)Nc1ccc(Cl)cc1)c1ccccn1 | 0.7 |
| C/C(=N\NC(=S)N1CC1)c1ccccn1 | 0.1 |

What follows are compounds tested on Plasmodium berghei (assay: Antimalarial activity against Plasmodium berghei KBG 173 infected in ICR/HA Swiss mouse assessed as increase in mean survival time at 320 mg/kg, sc administered 72 hrs post infection). Conditions: route subcutaneous.
Assay type: functional

| SMILES | MST [days] |
| --- | --- |
| C/C(=N\NC(=S)NCc1ccc(C)cc1)c1ccccn1 | 5.7 |
| C/C(=N\NC(=S)NC(C)c1ccc(F)cc1)c1ccccn1 (stereo unspecified) | 5.2 |
| C/C(=N\NC(=S)NCc1cccc(Cl)c1)c1ccccn1 | 0 |
| C/C(=N\NC(=S)Nc1ccc(F)cc1)c1ccccn1 | 7.7 |

These compounds were tested on Plasmodium berghei (assay: Antimalarial activity against Plasmodium berghei KBG 173 infected in ICR/HA Swiss mouse assessed as increase in mean survival time at 640 mg/kg, sc administered 72 hrs post infection). Conditions: route subcutaneous.
Assay type: functional

| SMILES | MST [days] |
| --- | --- |
| C/C(=N\NC(=S)NCc1cccnc1)c1ccccn1 | 0.6 |
| CCOC(=O)c1ccc(NC(=S)N/N=C(\C)c2ccccn2)cc1 | 0.6 |
| CCOC(=O)CNC(=S)N/N=C(\CC)c1ccccn1 | 0.5 |
| C/C(=N\NC(=S)Nc1c(Cl)cccc1Cl)c1ccccn1 | 0.1 |
| C/C(=N\NC(=S)NCc1ccccc1Cl)c1ccccn1 | 1.9 |
| C/C(=N\NC(=S)Nc1ccncc1)c1ccccn1 | 0.9 |
| C/C(=N\NC(=S)NCc1ccc(Cl)cc1Cl)c1ccccn1 | 2 |
| C/C(=N\NC(=S)Nc1ccc(Br)cc1)c1ccccn1 | 0.5 |
| C/C(=N\NC(=S)Nc1ccc(Cl)cc1Cl)c1ccccn1 | 0.7 |
| C/C(=N\NC(=S)Nc1cc(Cl)cc(Cl)c1)c1ccccn1 | 0 |
| CC/C(=N\NC(=S)Nc1cccc(Cl)c1)c1ccccn1 | 0.5 |
| CC/C(=N\NC(=S)Nc1ccc([N+](=O)[O-])cc1)c1ccccn1 | 0.3 |
| C/C(=N\NC(=S)Nc1ccc(S(=O)(=O)c2ccc(NC(=S)N/N=C(\C)c3ccccn3)cc2)cc1)c1ccccn1 | 0.3 |
| CCOC(=O)CNC(=S)N/N=C(\C)c1ccccn1 | 0.3 |
| CC/C(=N\NC(=S)Nc1ccc(Br)cc1)c1ccccn1 | 0.7 |
| C/C(=N\NC(=S)Nc1cccc(Cl)c1Cl)c1ccccn1 | 0.6 |
| CCCCc1ccc(NC(=S)N/N=C(\C)c2ccccn2)cc1 | 9.9 |
| C/C(=N\N=C(/S)NCc1ccccc1)c1ccccn1 | 10.6 |
| CC/C(=N\NC(=S)NC(c1ccccc1)(c1ccccc1)c1ccccc1)c1ccccn1 | 0.3 |
| C/C(=N\NC(=S)NCc1cccc(C)c1)c1ccccn1 | 6.5 |
| C/C(=N\NC(=S)Nc1ccccc1Br)c1ccccn1 | 0.9 |
| C/C(=N\NC(=S)NCc1ccncc1)c1ccccn1 | 0 |

| SMILES | MST [days] |
| --- | --- |
| C/C(=N\NC(=S)Nc1cc(Cl)ccc1Cl)c1ccccn1 | 0.1 |
| C/C(=N\NC(=S)Nc1cc(Cl)c(Cl)cc1Cl)c1ccccn1 | -0.1 |
| C/C(=N\NC(=S)Nc1c2ccccc2nc2ccccc12)c1ccccn1 | 0.5 |
| C/C(=N\NC(=S)NCc1cccc(Cl)c1)c1ccccn1 | -0.4 |
| COc1cc(NC(=S)N/N=C(\C)c2ccccn2)c2nccc(C)c2c1 | 0.3 |
| COc1ccc(NC(=S)N/N=C(\C)c2ccccn2)nn1 | 0.2 |
| COc1ccc(NC(=S)N/N=C(\C)c2ccccn2)cc1 | 1.7 |
| C/C(=N\NC(=S)Nc1ccc(Cl)c(Cl)c1)c1ccccn1 | 0.5 |
| C/C(=N\NC(=S)NCc1ccc(C)c(C)c1)c1ccccn1 | 2.1 |
| CC/C(=N\NC(=S)Nc1ccccc1Cl)c1ccccn1 | 0.3 |
| C/C(=N\NC(=S)Nc1cccc(Br)c1)c1ccccn1 | 0.9 |
| C/C(=N\NC(=S)NCc1ccc(Cl)c(Cl)c1)c1ccccn1 | 0.1 |
| C/C(=N\NC(=S)NCc1ccccn1)c1ccccn1 | 0.9 |
| C/C(=N\NC(=S)Nc1cccc([N+](=O)[O-])c1)c1ccccn1 | -0.1 |
| CCOC(=O)c1ccc(NC(=S)N/N=C(\CC)c2ccccn2)cc1 | 0.5 |
| C/C(=N\NC(=S)Nc1ccc(Cl)c(Cl)c1Cl)c1ccccn1 | -0.3 |
| C/C(=N\NC(=S)NC(c1ccccc1)(c1ccccc1)c1ccccc1)c1ccccn1 | 0.1 |
| C/C(=N\NC(=S)Nc1cccnc1)c1ccccn1 | 1.3 |
| C/C(=N\NC(=S)Nc1ccc([N+](=O)[O-])cc1)c1ccccn1 | 0.5 |
| C/C(=N\NC(=S)Nc1ccc(O)cc1)c1ccccn1 | 0.6 |
| CC/C(=N\NC(=S)Nc1ccc(Cl)cc1)c1ccccn1 | 1.1 |
| C/C(=N\NC(=S)N1CC1)c1ccccn1 | 0.1 |
